# In patent US20260373132A1, “PERK INHIBITORHC-5404 IN COMBINATION WITH ANTI-PD-1 ANTIBODY AND/OR AN ANTIANGIOGENETIC AGENT FOR USE IN THE TREATMENT OF CANCER” (HIBERCELL, INC., priority 2022, published 2026):
# Experiments:
# [1] = mouse body weight / tolerability; type: in vivo; details: 786-O, HC-5404 3, 10, 30 mg/kg BID and/or cabozantinib 30 mg/kg QD (FIG. 53)
# Method: Body weight and tumor volume were measured twice weekly. Tumor volume was calculated using the formula [tumor volume (mm^3)=π/6×length×width^2] and plotted as means+SEM. The percentage of tumor growth inhibition was calculated at the end of the study using the formula: […], if ΔT>0, ΔT, mean tumor volume of the drug-treated group on the observation day of the study—mean tumor volume of the drug-treated group on initial day of dosing; ΔC, mean tumor volume of the control group on the observation day of the study—mean tumor volume of the control group on initial day of dosing. Regression was calculated using the formula=100×ΔT/Tinitial, if ΔT<0. Animals with >50% regressions were partial responders. Animals with tumor volume of 0 (no measurable tumor) were considered as complete responders, and animals with <50% tumor regression and 30% growth over the baseline were considered as stable disease. Animals with tumors>30% increase over the baseline were considered progressive disease. The % change in body weight was calculated by the formula (body weight on observation day−body weight on initial day)/body weight on initial day×100%.
# [2] = tested on: human cord blood-derived MDSCs / CD3 T cells; test: human T cell suppression assay with human cord blood-derived MDSCs; type: cell-based; details: 500 or 750 nM (FIG. 10A, 10C)
# Method: Human MDSC Preparation: Fresh cord blood was obtained from NDRI (Protocol ID #RCHA4 01). Mononuclear cells were enriched from cord blood by Lymphoprep density gradient centrifugation, followed by CD34+ cell isolation using EasySep Human Cord Blood CD34 Positive selection Kit II, and the enriched CD34+ cells were cultured in a 48-well plate (BD Falcon, Bedford, MA) at 1×10^5 cells/well/ml of IMDM complete medium (IMDM supplemented with 10% FBS, 1× penicillin-streptomycin and 2 mM L-glutamax). 100 ng/ml human GM-CSF, 100 ng/ml human G-CSF and 50 ng/ml human SCF were added to the IMDM complete medium and cells were expanded for 13-14 days in a 37 °C, 5% CO2 humidified incubator and medium was refreshed on day 7. MDSC differentiation was induced by culturing the expanded CD34+ cells in a 24 well plate at 0.1-0.15×10^6 cells/well in 2 ml of IMDM complete medium supplemented with 100 ng/ml human GM-CSF, 50 ng/mL G-CSF and 30 ng/ml IL-6 for additional 6-7 days with medium changed on day 3. […]
# Human T cell Suppression Assay. […] T cell proliferation was analyzed by flow cytometry. […] The labeled cells were analyzed on a BD Fortessa cytometer and data was analyzed by FlowJo. […] Data were analyzed using one-way ANOVA with multiple comparison corrected with Dunnett test. *P<0.05; **P<0.01; ***P<0.005, ****P<0.0001 (FIGS. 10A, 10B, and 10C).
# SMTCA75 = test: RCC PDX single animal trial, SMTCA75; type: in vivo, mouse; details: HC-5404 30 mg/kg PO BID, n=1
# Text: This example investigated the effect of HC-5404 in combination with VEGFR-TKIs in inhibiting tumor growth using 12 RCC PDX tumor models, following procedures analogous to those described above.
# Single animal per group (n=1) trial of animals harboring diverse RCC PDX models were used in this study.
compound,measurement,setting,value
"Cc1cc(NC(=O)[C@H](O)c2cc(F)cc(F)c2)ccc1-c1cnc(N)c(C(=O)NC(C)C)c1 [HC-5404, (R)-2-amino-5-(4-(2-(3,5-difluorophenyl)-2-hydroxyacetamido)-2-methylphenyl)-N-isopropylnicotinamide]",mouse body weight,[1],did not affect mouse body weight
same,inhibition of T-cells by MDSCs,[2],reduced inhibition of T-cells
same,antitumor efficacy as monotherapy,SMTCA75,exhibited antitumor efficacy
